Test [1] concerns VIOTR. Briefly: Pre-emergence herbicidal effect, greenhouse pot test. It counts as in vivo, Viola tricolor. As to conditions: scored visually after about 3 weeks vs untreated controls. The source says:
(§1) Seeds of monocotyledonous and dicotyledonous weed plants and crop plants are placed in plastic or organic planting pots and covered with soil. The compounds of the invention, formulated in the form of wettable powders (WP) or as emulsion concentrates (EC), are then applied to the surface of the covering soil as aqueous suspension or emulsion with addition of 0.5% additive at a water application rate equivalent to 600 l/ha. After the treatment, the pots are placed in a greenhouse and kept under good growth conditions for the trial plants. After about 3 weeks, the effect of the preparations is scored visually in comparison with untreated controls as percentages. For example, 100% activity=the plants have died, 0% activity=like control plants.
(§2) Tables 1a to 19c below show the effects/crop compatibilities of selected compounds of the general formula (I) on various harmful plants at an application rate corresponding to 20 to 320 g/ha, which were obtained by the trial procedure specified above.
(§3) • ALOMY: Alopecurus myosuroides SETVI: Setaria viridis • AVEFA: Avena fatua POLCO: Fallopia convolvulus • AMARE: Amaranthus retroflexus ECHCG: Echinochloa crus-galli • LOLRJ: Lolium rigidum STEME: Stellaria media • VERPE: Veronica persica MATIN: Tripleurospermum inodorum • DIGSA: Digitaria sanguinalis ABUTH: Abutylon threophrasti • TRZAS: Triticum aestivum VIOTR: Viola tricolor • BRSNW: Brassica napus ZEAMX: Zea mays • PHBPU: Ipomoea purpurea GLXMA: Glycine max • ORYSA: Oryza sativa HORMU: Hordeum murinum

For test [2], the system named is ABUTH. The test is described as follows: Post-emergence herbicidal effect, greenhouse pot test. It counts as in vivo, Abutilon theophrasti. The conditions noted are these: Abutilon theophrasti, 504 h, visual rating about 3 weeks after treatment, read-out: Post-emergence effect against ABUTH. Summed up:
(§4)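 Sandy loam pots, greenhouse. One-leaf stage (2–3 wk after sowing) foliar spray; WP/EC in water + 0.5% additive, 600 l/ha; 20–320 g/ha. Visual score ~3 wk, 0–100% vs untreated.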

The test system of test [3] is PHBPU. Briefly: Pre-emergence herbicidal effect, greenhouse pot test. As to conditions: scored visually after about 3 weeks vs untreated controls. In kind it is in vivo, Ipomoea purpurea.
Description: as §1, §2, §3

Test [4] has as its system ZEAMX. Briefly: Post-emergence herbicidal effect and crop plant compatibility, greenhouse pot test. In kind it is in vivo, Zea mays. As to conditions: Zea mays, 504 h, 80 g/ha, one-leaf stage, rated visually after about 3 weeks vs untreated controls, read-out: Post-emergence effect at 80 g/ha against ZEAMX in %. Summed up:
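Greenhouse pot plants in sandy loam receive a one-leaf-stage spray at 20 to 320 g/ha. Activity is assessed visually around 3 weeks afterwards on a 0–100% scale, where 100% means the plants have died.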

Test [5] has as its system POLCO. The test is described as follows: Post-emergence herbicidal effect, greenhouse pot test. The conditions noted are these: Fallopia convolvulus, 504 h, read-out: Post-emergence effect against POLCO in %. In kind it is in vivo, Fallopia convolvulus. A digest of the protocol: as §4
Test [6] deals with GLXMA. The test is described as follows: Pre-emergence herbicidal effect and crop plant compatibility, greenhouse pot test. It counts as in vivo, Glycine max. The conditions noted are these: 80 g/ha, scored visually after about 3 weeks vs untreated controls.
Description: as §1, §2, §3

Test [7] concerns various unwanted plants. Briefly: Post-emergence effect against various unwanted plants (PO): comparative test of I-01 with compounds from WO2020/245044 (Tables 41a, 41b) and summary statements. It counts as in vivo. The conditions noted are these: for Post-emergence effect, Effect %, ALOMY / Post-emergence effect, Effect %, AVEFA / Post-emergence effect, Effect %, ECHCG / Post-emergence effect, Effect %, LOLRI / Post-emergence effect, Effect %, SETVI: comparative test. How it is done:
Seeds of monocotyledonous and dicotyledonous weeds and crop plants are placed in sandy loam in plastic or organic planting pots, covered with soil and cultivated in a greenhouse under controlled growth conditions. 2 to 3 weeks after sowing, the trial plants are treated at the one-leaf stage. The compounds of the invention, formulated in the form of wettable powders (WP) or as emulsion concentrates (EC), are then sprayed onto the green parts of the plants as aqueous suspension or emulsion with addition of 0.5% additive at a water application rate of 600 l/ha (converted). After the test plants have been kept in the greenhouse under optimum growth conditions for about 3 weeks, the activity of the preparations is rated visually in comparison to untreated controls. For example, 100% activity=the plants have died, 0% activity=like control plants. […] Tables 41a and 41b below show the effects of the inventive compound (I-01) with structurally similar compounds (WO2020/245044) on various harmful plants at an application rate corresponding to 320 g/ha or less, which have been obtained by the trial procedure specified hereinafter. The inventive compound (I-01) differs here by variance of a significant structural feature from the structurally similar compound with regard to the R^2 radical. Seeds of monocotyledonous and dicotyledonous weeds and crop plants are placed in sandy loam in plastic or organic planting pots, covered with soil and cultivated in a greenhouse under controlled growth conditions. 2 to 3 weeks after sowing, the trial plants are treated at the one-leaf stage. The compounds of the invention, formulated in the form of wettable powders (WP) or as emulsion concentrates (EC), are then sprayed onto the green parts of the plants as aqueous suspension or emulsion with addition of 0.5% additive at a water application rate of 600 l/ha (converted). After the test plants have been kept in the greenhouse under optimum growth conditions for about 3 weeks, the activity of the preparations is rated visually in comparison to untreated controls. For example, 100% activity=the plants have died, 0% activity=like control plants. Effects/crop compatibilities of selected compounds (see Table 39) on various harmful plants at an application rate corresponding to 80 to 320 g/ha that have been obtained by the trial procedure specified hereinafter are shown in Tables 41a and 41b below.

As for `COC(=O)C(OC)Oc1nn(-c2ccccc2F)c(-c2ccc(F)nc2)c1Br` (racemic) [Example I-04, Methyl (2RS)-{[4-bromo-1-(2-fluorophenyl)-5-(6-fluoropyridin-3-yl)-1H-pyrazol-3-yl]oxy}(methoxy)acetate], the “Pre-emergence effect at 80 g/ha against VIOTR in %” value in test [1] (80 g/ha) is 80%. Further, the “Pre-emergence effect at 320 g/ha against VIOTR in %” value in test [1] is recorded as 100%. Besides, the pest or weed control at 320 g/ha in test [2] was 80%. Besides, in test [3] (80 g/ha), the “Pre-emergence effect at 80 g/ha against PHBPU in %” value was 80%. The “Pre-emergence effect at 320 g/ha against PHBPU in %” value in test [3] was 90%.

As for `COC(=O)C(OC)Oc1nn(-c2ncccc2F)c(-c2ccc(F)nc2)c1Br` (centres unmarked) [Example I-05], the plant injury at 80 g/ha in test [4] was 20%. In addition, the pest or weed control at 320 g/ha in test [5] stood at 80%. In addition, the “Pre-emergence effect at 320 g/ha against VIOTR in %” value in test [1] came to 100%. Also, in test [6], the “Pre-emergence effect at 80 g/ha against GLXMA in %” value was 10%. Also, the “Pre-emergence effect at 320 g/ha against PHBPU in %” value in test [3] came out at 80%.

In the case of `CCOC(=O)C(OCC)Oc1nn(-c2ccccc2F)c(-c2ccc(F)nc2)c1Br` (racemic) [Example I-01, Ethyl (2RS)-{[4-bromo-1-(2-fluorophenyl)-5-(6-fluoropyridin-3-yl)-1H-pyrazol-3-yl]oxy}(ethoxy)acetate], in test [5] (80 g/ha), the pest or weed control at 80 g/ha is 80%. Besides, the pest or weed control at 320 g/ha in test [5] was determined as 80%. Besides, the pest or weed control at 80 g/ha in test [2] (80 g/ha) is 80%. Besides, in test [2], the pest or weed control at 320 g/ha is 90%. In addition, the “Pre-emergence effect at 80 g/ha against GLXMA in %” value in test [6] stood at 0%. Further, in test [7] (80 g/ha), the “Post-emergence effect, Effect %, ALOMY” value was found to be 90%; the “Post-emergence effect, Effect %, AVEFA” value turned out to be 90%; the “Post-emergence effect, Effect %, ECHCG” value is given as 90%; the “Post-emergence effect, Effect %, LOLRI” value was 70%. Moreover, in test [7] (80 g/ha), the “Post-emergence effect, Effect %, SETVI” value was found to be 90%. Also, in test [7] (320 g/ha), the “Post-emergence effect, Effect %, ALOMY” value was found to be 100%; the “Post-emergence effect, Effect %, AVEFA” value turned out to be 90%; the “Post-emergence effect, Effect %, ECHCG” value was 90%; the “Post-emergence effect, Effect %, LOLRI” value worked out at 90%. In test [7] (320 g/ha), the “Post-emergence effect, Effect %, SETVI” value worked out at 90%. Moreover, the “herbicidal efficacy by comparison to the structurally similar compounds (Tables 41a and 41b)” value in test [7] (different harmful plants, 320 g or less per hectare, vs compounds from WO2020/245044) is given as “distinctly improved herbicidal efficacy”.
